Reference: PMC8012331, “Drug-induced hepatic steatosis in absence of severe mitochondrial dysfunction in HepaRG cells: proof of multiple mechanism-based toxicity” (Cell Biology and Toxicology, 2020)

Tested on: HepaRG cells
Experiment: Neutral lipids with Nile red in HepaRG cells
Settings: 4 days, selected concentrations (ATP loss < 30%, not above 100 × Cmax), vs control

CO[C@H]1/C=C/O[C@@]2(C)Oc3c(C)c(O)c4c(O)c(c(/C=N/N5CCN(C)CC5)c(O)c4c3C2=O)NC(=O)/C(C)=C\C=C\[C@H](C)[C@H](O)[C@@H](C)[C@@H](O)[C@@H](C)[C@H](OC(C)=O)[C@@H]1C [RIF, rifampicin]
Accumulation of neutral lipids (steatosis): significant accumulation of neutral lipids
